From publication PMC9149975, “The diaryl-imidazopyridazine anti-plasmodial compound, MMV652103, exhibits anti-breast cancer activity” (EXCLI Journal, 2022) come the findings set out here.

One assay deals with MCF7 cells. Nature of the assay: GSH-Glo Glutathione assay. In kind it is cell-based, human. To be noted: MCF7, 24 h; MMV652103 ½ IC50 and IC50, doxorubicin IC50 (9.84 nM). The method, then:
The increase in ROS levels results in a decrease in the levels of antioxidants. To confirm the presence of intracellular ROS, the levels of the antioxidant, glutathione (GSH), was measured using the GSH-Glo™ Glutathione assay kit (V6911, Promega, Wisconsin, USA), according to the manufacturer's instructions. Briefly, cells (2500-4500 cells per well) were seeded in opaque 96 well plates. Cells were treated for 24 h with either vehicle or MMV652103. Thereafter, the cell culture medium was removed and 100 μl of 1X GSH-Glo™ Reagent (prepared using Luciferin-NT substrate and Glutathione S-Transferase each diluted 1:100 in GSH-Glo™ Reaction Buffer) was added to each well. The plate was then mixed briefly on a shaker and incubated for 10 min at RT. Thereafter, 100 μl reconstituted Luciferin Detection Reagent was added to each well. The plate was then incubated for 15 min RT in order to stabilize the luminescence signal. The plate was read using the GloMax® Explorer Multimode plate reader (Promega, Wisconsin, USA).

Another assay deals with MCF7 tumors. Nature of the assay: Chick embryo CAM xenograft: tumor weight and metastasis. In kind it is in vivo. To be noted: 25 μM, every 48 h E10-E16, weighed E18. The method, then:
All studies and procedures were conducted with prior approval of the Animal Ethics Committee of the University of Cape Town (FHS AEC REF NO:016/025) in accordance with the South African National Standard (SANS 10386:008) for the Care and Use of Animals for Scientific Purposes (SABS, 2015[71]), and guidelines from the Department of Health (2015[21]). Fertilized White Leghorn eggs were incubated at 37.5 °C with 50 % relative humidity for 9 days. At stage E9, the chorioallantoic membrane (CAM) was dropped by drilling a small hole through the eggshell into the air sac and a 1 cm^2 window was cut in the eggshell above the CAM. Cultured MCF7 cells were detached with trypsin, washed with complete medium and suspended in PBS. An inoculum of MCF7 cells was grafted onto the CAM of each E9 egg (21 eggs were used for each condition) and at E10, tumors were detectable. MCF7 tumors were treated every 48 h (E10, E12, E14, E16) by dropping 100 μl of vehicle (0.25 % DMSO in PBS), a reference compound (Paclitaxel), or MMV652103, onto the tumour. At E18 the upper portion of the CAM was removed, transferred to PBS and the tumors cut away from normal CAM tissue and weighed. A one-way ANOVA analysis with post-tests was done. In parallel, a 1 cm^2 portion of the lower CAM was collected to evaluate the number of metastatic cells. The relative amount of metastasis was calculated as follows: Tumor cells were grafted onto the upper chorioallantoic membrane (CAM) and during metastasis the cells invade the epithelium and basement membrane of the upper CAM and move through connective tissue into the vasculature into the lower CAM. The cells in the lower CAM are then harvested and genomic DNA is extracted and analyzed by qPCR with specific primers for Alu sequences which are only found in higher primates i.e. it allows for the distinction between human tumor cells and the host chick cells. Statistical analysis was directly performed on data from the Bio-Rad CFX Manager 3.1 software.

As for `COc1cccc2c1C(=O)c1c(O)c3c(c(O)c1C2=O)C[C@@](O)(C(=O)CO)C[C@@H]3O[C@H]1C[C@H](N)[C@H](O)[C@H](C)O1` [Doxorubicin, reference compound], in the assay with MCF7 cells, the “levels of GSH” value is “significant decrease”.

`CC(=O)O[C@H]1C(=O)[C@@]2(C)[C@H]([C@H](OC(=O)c3ccccc3)[C@]3(O)C[C@H](OC(=O)[C@H](O)[C@@H](NC(=O)c4ccccc4)c4ccccc4)C(C)=C1C3(C)C)[C@]1(OC(C)=O)CO[C@@H]1C[C@@H]2O` [Paclitaxel, reference compound]: in the assay with MCF7 tumors, the tumor weight reduction was determined as 28.22%.
